Patent publication US8952157B2, “Apoptosis-inducing agents for the treatment of cancer and immune and autoimmune diseases” (AbbVie Inc., priority 2008, dated 2015)

Molecular target: GST-Bcl-2 (Homo sapiens (Human), UniProt P10415)
Experiment: Time Resolved-Fluorescence Resonance Energy Transfer (TR-FRET) Bcl-2 binding assay
Conditions: GST-Bcl-2 1 nM, F-Bak peptide probe 100 nM, Tb-anti-GST antibody 1 nM; Ki by Wang's equation
Method: Determination of the utility of compounds having Formula (I) as binders to and inhibitors of anti-apoptotic Bcl-2 proteins was performed using the Time Resolved-Fluorescence Resonance Energy Transfer (TR-FRET) Assay. Tb-anti-GST antibody was purchased from Invitrogen (Catalog No. PV4216).
(§1) Representative compounds were serially diluted in dimethyl sulfoxide (DMSO) starting at 50 μM (2× starting concentration; 10% DMSO) and 10 μL were transferred into a 384-well plate. The samples are then mixed on a shaker for 1 minute and incubated for an additional 3 hours at room temperature. For each assay, the probe/antibody and protein/probe/antibody were included on each assay plate as negative and positive controls, respectively. Fluorescence was measured on the Envision (Perkin Elmer) using a 340/35 nm excitation filter and 520/525 (F-Bak peptide) and 495/510 nm (Tb-labeled anti-Histidine antibody) emission filters.
as §1, with “The” for “Representative compounds were serially diluted in dimethyl sulfoxide (DMSO) starting at 50 μM (2× starting concentration; 10% DMSO) and 10 μL were transferred into a 384-well plate. The”, “were” for “are”
The inhibition constant (Ki) is the dissociation constant of an enzyme-inhibitor complex or a protein/small molecule complex, wherein the small molecule is inhibiting binding of one protein to another protein. So a large Ki value indicates a low binding affinity and a small Ki value indicates a high binding affinity.

GST-Bcl-2, sequence (P10415 whole entry): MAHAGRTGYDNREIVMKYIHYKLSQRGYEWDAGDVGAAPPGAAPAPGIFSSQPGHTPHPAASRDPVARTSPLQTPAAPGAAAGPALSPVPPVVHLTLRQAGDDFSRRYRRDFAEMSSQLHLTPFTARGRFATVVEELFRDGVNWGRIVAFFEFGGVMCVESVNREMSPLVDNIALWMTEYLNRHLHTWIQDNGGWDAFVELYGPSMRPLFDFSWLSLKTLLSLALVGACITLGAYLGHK

## 2-(2-chlorophenoxy)-4-(4-{([2-(4-chlorophenyl)-4,4-dimethylcyclohex-1-en-1-yl]methyl}piperazin-1-yl)-N-({4-[(1,4-dimethylpiperidin-4-yl)amino]-3-nitrophenyl}sulfonyl)benzamide [Example 168]
  Ki: 28.3 nM

## 4-(4-{[4-(4-chlorophenyl)-6,6-dimethyl-5,6-dihydro-2H-pyran-3-yl]methyl)}piperazin-1-yl)-2-[(6-fluoro-1H-indol-5-yl)oxy]-N-({4-[(4-fluorotetrahydro-2H-pyran-4-yl)methoxy]-3-nitrophenyl}sulfonyl)benzamide [Example 297]
  Ki: < 0.01 nM

## CN(C)Cc1cccc(Oc2cc(N3CCN(Cc4ccccc4-c4ccc(Cl)cc4)CC3)ccc2C(=O)NS(=O)(=O)c2ccc(NCC3CCOCC3)c([N+](=O)[O-])c2)c1 [Example 1, 4-(4-((4′-chloro-1,1′-biphenyl-2-yl)methyl)piperazin-1-yl)-2-(3-((dimethylamino)methyl)phenoxy)-N-((3-nitro-4-((tetrahydro-2H-pyran-4-ylmethyl)amino)phenyl)sulfonyl)benzamide]
  Ki: 8.35 nM

## CNc1cccc(Oc2cc(N3CCN(Cc4ccccc4-c4ccc(Cl)cc4)CC3)ccc2C(=O)NS(=O)(=O)c2ccc(NCC3CCOCC3)c([N+](=O)[O-])c2)c1 [Example 2, 4-(4-((4′-chloro-1,1′-biphenyl-2-yl)methyl)piperazin-1-yl)-2-(3-(methylamino)phenoxy)-N-((3-nitro-4-((tetrahydro-2H-pyran-4-ylmethyl)amino)phenyl)sulfonyl)benzamide]
  Ki: 31.5 nM

## Cc1cc2cc(Oc3cc(N4CCN(CC5=C(c6ccc(Cl)cc6)CC(C)(C)CC5)CC4)ccc3C(=O)NS(=O)(=O)c3ccc(NC4CCN(C)CC4)c([N+](=O)[O-])c3)ccc2[nH]1 [Example 3, 4-(4-((2-(4-chlorophenyl)-4,4-dimethylcyclohex-1-en-1-yl)methyl)piperazin-1-yl)-2-((2-methyl-1H-indol-5-yl)oxy)-N-((4-((1-methylpiperidin-4-yl)amino)-3-nitrophenyl)sulfonyl)benzamide]
  Ki: 0.827 nM

## Cc1cc2cc(Oc3cc(N4CCN(CC5=C(c6ccc(Cl)cc6)CC(C)(C)CC5)CC4)ccc3C(=O)NS(=O)(=O)c3ccc(NCCCN4CCOCC4)c([N+](=O)[O-])c3)ccc2[nH]1 [Example 4, 4-(4-((2-(4-chlorophenyl)-4,4-dimethylcyclohex-1-en-1-yl)methyl)piperazin-1-yl)-2-((2-methyl-1H-indol-5-yl)oxy)-N-((4-((3-morpholin-4-ylpropyl)amino)-3-nitrophenyl)sulfonyl)benzamide]
  Ki: 2.47 nM

## O=C(NS(=O)(=O)c1ccc(NCC2CCOCC2)c([N+](=O)[O-])c1)c1ccc(N2CCN(Cc3ccccc3-c3ccc(Cl)cc3)CC2)cc1Oc1ccccc1Cl [Example 5, 4-(4-((4′-chloro-1,1′-biphenyl-2-yl)methyl)piperazin-1-yl)-2-(2-chlorophenoxy)-N-((3-nitro-4-((tetrahydro-2H-pyran-4-ylmethyl)amino)phenyl)sulfonyl)benzamide]
  Ki: 0.746 nM

## O=C(NS(=O)(=O)c1ccc(NCC2CCOCC2)c([N+](=O)[O-])c1)c1ccc(N2CCN(Cc3ccccc3-c3ccc(Cl)cc3)CC2)cc1Oc1cccc(Cl)c1 [Example 6, 4-(4-((4′-chloro-1,1′-biphenyl-2-yl)methyl)piperazin-1-yl)-2-(3-chlorophenoxy)-N-((3-nitro-4-((tetrahydro-2H-pyran-4-ylmethyl)amino)phenyl)sulfonyl)benzamide]
  Ki: 0.787 nM

## O=C(NS(=O)(=O)c1ccc(NCC2CCOCC2)c([N+](=O)[O-])c1)c1ccc(N2CCN(Cc3ccccc3-c3ccc(Cl)cc3)CC2)cc1Oc1ccc(Cl)cc1 [Example 7, 4-(4-((4′-chloro-1,1′-biphenyl-2-yl)methyl)piperazin-1-yl)-2-(4-chlorophenoxy)-N-((3-nitro-4-((tetrahydro-2H-pyran-4-ylmethyl)amino)phenyl)sulfonyl)benzamide]
  Ki: 2.59 nM

## O=C(NS(=O)(=O)c1ccc(NCC2CCOCC2)c([N+](=O)[O-])c1)c1ccc(N2CCN(Cc3ccccc3-c3ccc(Cl)cc3)CC2)cc1Oc1cccc([N+](=O)[O-])c1 [Example 8, 4-(4-((4′-chloro-1,1′-biphenyl-2-yl)methyl)piperazin-1-yl)-2-(3-nitrophenoxy)-N-((3-nitro-4-((tetrahydro-2H-pyran-4-ylmethyl)amino)phenyl)sulfonyl)benzamide]
  Ki: 3.45 nM

## O=C(NS(=O)(=O)c1ccc(NCCCN2CCOCC2)c([N+](=O)[O-])c1)c1ccc(N2CCN(Cc3ccccc3-c3ccc(Cl)cc3)CC2)cc1Oc1cccc(CO)c1 [Example 9, 4-(4-((4′-chloro-1,1′-biphenyl-2-yl)methyl)piperazin-1-yl)-2-(3-(hydroxymethyl)phenoxy)-N-((4-((3-morpholin-4-ylpropyl)amino)-3-nitrophenyl)sulfonyl)benzamide]
  Ki: 0.754 nM

## CN(C)CCCNc1ccc(S(=O)(=O)NC(=O)c2ccc(N3CCN(Cc4ccccc4-c4ccc(Cl)cc4)CC3)cc2Oc2ccccc2Cl)cc1[N+](=O)[O-] [Example 11, 4-(4-((4′-chloro-1,1′-biphenyl-2-yl)methyl)piperazin-1-yl)-2-(2-chlorophenoxy)-N-((4-((3-(dimethylamino)propyl)amino)-3-nitrophenyl)sulfonyl)benzamide]
  Ki: 0.171 nM

## O=C(NS(=O)(=O)c1ccc(NCCCN2CCOCC2)c([N+](=O)[O-])c1)c1ccc(N2CCN(Cc3ccccc3-c3ccc(Cl)cc3)CC2)cc1Oc1cccc(Cl)c1 [Example 12, 4-(4-((4′-chloro-1,1′-biphenyl-2-yl)methyl)piperazin-1-yl)-2-(3-chlorophenoxy)-N-((4-((3-morpholin-4-ylpropyl)amino)-3-nitrophenyl)sulfonyl)benzamide]
  Ki: 0.331 nM

## O=C(NS(=O)(=O)c1ccc(NCCCN2CCOCC2)c([N+](=O)[O-])c1)c1ccc(N2CCN(Cc3ccccc3-c3ccc(Cl)cc3)CC2)cc1Oc1ccc(Cl)cc1 [Example 13, 4-(4-((4′-chloro-1,1′-biphenyl-2-yl)methyl)piperazin-1-yl)-2-(4-chlorophenoxy)-N-((4-((3-morpholin-4-ylpropyl)amino)-3-nitrophenyl)sulfonyl)benzamide]
  Ki: 1.62 nM

## CN(C)CCCNc1ccc(S(=O)(=O)NC(=O)c2ccc(N3CCN(Cc4ccccc4-c4ccc(Cl)cc4)CC3)cc2Oc2cccc(Cl)c2)cc1[N+](=O)[O-] [Example 14, 4-(4-((4′-chloro-1,1′-biphenyl-2-yl)methyl)piperazin-1-yl)-2-(3-chlorophenoxy)-N-((4-((3-(dimethylamino)propyl)amino)-3-nitrophenyl)sulfonyl)benzamide]
  Ki: 0.079 nM

## CN(C)CCCNc1ccc(S(=O)(=O)NC(=O)c2ccc(N3CCN(Cc4ccccc4-c4ccc(Cl)cc4)CC3)cc2Oc2ccc(Cl)cc2)cc1[N+](=O)[O-] [Example 15, 4-(4-((4′-chloro-1,1′-biphenyl-2-yl)methyl)piperazin-1-yl)-2-(4-chlorophenoxy)-N-((4-((3-(dimethylamino)propyl)amino)-3-nitrophenyl)sulfonyl)benzamide]
  Ki: 0.586 nM

## CN(C)CCCNc1ccc(S(=O)(=O)NC(=O)c2ccc(N3CCN(Cc4ccccc4-c4ccc(Cl)cc4)CC3)cc2Oc2cccc3c2ccn3C)cc1[N+](=O)[O-] [Example 16, 4-(4-((4′-chloro-1,1′-biphenyl-2-yl)methyl)piperazin-1-yl)-N-((4-((3-(dimethylamino)propyl)amino)-3-nitrophenyl)sulfonyl)-2-((1-methyl-1H-indol-4-yl)oxy)benzamide]
  Ki: 3.04 nM

## CC(=O)Nc1cccc(Oc2cc(N3CCN(Cc4ccccc4-c4ccc(Cl)cc4)CC3)ccc2C(=O)NS(=O)(=O)c2ccc(NCC3CCOCC3)c([N+](=O)[O-])c2)c1 [Example 17, 2-(3-(acetylamino)phenoxy)-4-(4-((4′-chloro-1,1′-biphenyl-2-yl)methyl)piperazin-1-yl)-N-((3-nitro-4-((tetrahydro-2H-pyran-4-ylmethyl)amino)phenyl)sulfonyl)benzamide]
  Ki: 5.58 nM

## Nc1ccc(Oc2cc(N3CCN(Cc4ccccc4-c4ccc(Cl)cc4)CC3)ccc2C(=O)NS(=O)(=O)c2ccc(NCC3CCOCC3)c([N+](=O)[O-])c2)cc1 [Example 18, 2-(4-aminophenoxy)-4-(4-((4′-chloro-1,1′-biphenyl-2-yl)methyl)piperazin-1-yl)-N-((3-nitro-4-((tetrahydro-2H-pyran-4-ylmethyl)amino)phenyl)sulfonyl)benzamide]
  Ki: 2.49 nM

## Nc1cccc(Oc2cc(N3CCN(Cc4ccccc4-c4ccc(Cl)cc4)CC3)ccc2C(=O)NS(=O)(=O)c2ccc(NCC3CCOCC3)c([N+](=O)[O-])c2)c1 [Example 19, 2-(3-aminophenoxy)-4-(4-((4′-chloro-1,1′-biphenyl-2-yl)methyl)piperazin-1-yl)-N-((3-nitro-4-((tetrahydro-2H-pyran-4-ylmethyl)amino)phenyl)sulfonyl)benzamide]
  Ki: 1.68 nM

## COc1cccc(Oc2cc(N3CCN(Cc4ccccc4-c4ccc(Cl)cc4)CC3)ccc2C(=O)NS(=O)(=O)c2ccc(NCC3CCOCC3)c([N+](=O)[O-])c2)c1 [Example 20, 4-(4-((4′-chloro-1,1′-biphenyl-2-yl)methyl)piperazin-1-yl)-2-(3-methoxyphenoxy)-N-((3-nitro-4-((tetrahydro-2H-pyran-4-ylmethyl)amino)phenyl)sulfonyl)benzamide]
  Ki: 3.96 nM
